Molecular target: T1, Human M4 (Homo sapiens, UniProt P08173)
T1 construct: expressed in transfected cells; host or cells: CHO-K1 (ATCC), co-transfected with chimeric G protein Gqi5
T1 sequence (P08173 1-479): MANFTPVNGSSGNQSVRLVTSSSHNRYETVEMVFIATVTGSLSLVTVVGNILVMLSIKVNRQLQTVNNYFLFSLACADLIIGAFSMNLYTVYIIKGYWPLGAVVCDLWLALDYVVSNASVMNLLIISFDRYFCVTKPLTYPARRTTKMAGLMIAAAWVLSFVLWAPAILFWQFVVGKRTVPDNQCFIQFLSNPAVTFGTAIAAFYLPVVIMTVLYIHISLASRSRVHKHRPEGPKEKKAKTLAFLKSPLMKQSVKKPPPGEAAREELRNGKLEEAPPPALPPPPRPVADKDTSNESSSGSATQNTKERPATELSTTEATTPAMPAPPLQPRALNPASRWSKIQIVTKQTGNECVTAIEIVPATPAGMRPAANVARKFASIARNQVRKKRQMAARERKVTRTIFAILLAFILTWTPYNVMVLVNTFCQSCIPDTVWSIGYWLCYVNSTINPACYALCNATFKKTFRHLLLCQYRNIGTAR
Experiment: mAChR M4 cell-based functional assay (calcium flux, antagonism of EC80 acetylcholine response)
Conditions: M4/Gqi5/CHO-K1 cells; for remaining activity at 30 µM: CHO-K1, % ACh maximum at 30 μM, read-out: Human M4 Emin; for IC50: decrease of response elicited by EC80 acetylcholine; for Human M4 Emin: % ACh maximum at 30 μM
Method: Human or rat M4 cDNA, along with the chimeric G protein Gqi5, were transfected into Chinese hamster ovary (CHO-K1) cells purchased from the American Type Culture Collection using Lipofectamine2000. M4/Gqi5/CHO cells were grown in Ham's F-12 medium containing 10% heat-inactivated fetal bovine serum (FBS), 20 mM HEPES, 500 μg/mL G418 sulfate, and 200 μg/mL Hygromycin B.
For high throughput measurement of agonist-evoked increases in intracellular calcium, CHO-K1 cells stably expressing muscarinic receptors were plated in growth medium lacking G418 and hygromycin at 15,000 cells/20 μL/well in Greiner 384-well black-walled, tissue culture (TC)-treated, clear-bottom plates (VWR). Cells were incubated overnight at 37° C. and 5% CO2. The next day, cells were washed using an ELX 405 (BioTek) with assay buffer; the final volume was then aspirated to 20 μL. Next, 20 μL of a 2.3 μM stock of Fluo-4/acetoxymethyl ester (Invitrogen, Carlsbad, Calif.), prepared as a 2.3 mM stock in DMSO and mixed in a 1:1 ratio with 10% (w/v) Pluronic F-127 and diluted in assay buffer, was added to the wells and the cell plates were incubated for 50 min at 37° C. and 5% CO2. Dye was removed by washing with the ELX 405 and the final volume was aspirated to 20 μL. Compound master plates were formatted in a 10 point concentration-response curve (CRC) format (1:3 dilutions) in 100% DMSO with a starting concentration of 10 or 1 mM using a BRAVO liquid handler (Agilent). Test compound CRCs were then transferred to daughter plates (240 nL) using the Echo acoustic plate reformatter (Labcyte, Sunnyvale, Calif.) and then diluted into assay buffer (40 μL) to a 2× stock using a Thermo Fisher Combi (Thermo Fisher Scientific, Waltham, Mass.).
Calcium flux was measured using the Functional Drug Screening System (FDSS) 6000 or 7000 (Hamamatsu Corporation, Tokyo, Japan) as an increase in the fluorescent static ratio. Compounds were applied to cells (20 μL, 2×) using the automated system of the FDSS at 2 seconds into the protocol and the data were collected at 1 Hz. At 143 s, 10 μL of an EC20 concentration of the muscarinic receptor agonist acetylcholine was added (5×), followed by the addition of 12 μL of an EC80 concentration of acetylcholine at the 268 s time point (5×). Agonist activity was analyzed as a concentration-dependent increase in calcium mobilization upon compound addition. Positive allosteric modulator activity was analyzed as a concentration-dependent increase in the EC20 acetylcholine response. Antagonist activity was analyzed as a concentration-dependent decrease in the EC80 acetylcholine response; for the purposes of the tables herein, an IC50 (inhibitory concentration 50) was calculated as a concentration-dependent decrease of the response elicited by an EC80 concentration of acetylcholine. Concentration-response curves were generated using a four-parameter logistical equation in XLFit curve fitting software (IDBS, Bridgewater, N.J.) for Excel (Microsoft, Redmond, Wash.) or Prism (GraphPad Software, Inc., San Diego, Calif.) or the Dotmatics software platform (Dotmatics, Bishop's Stortford, UK).
Compounds were synthesized as described above. Activity (IC50 and Emin) was determined in the mAChR M4 cell-based functional assay as described above and the data are shown in Table 2.

Compound	remaining activity at 30 µM	IC50	Human M4 Emin
Fc1cc(F)c(F)c(-c2nnc(N[C@H]3C[C@@H]4CN(CC5CCCCO5)C[C@@H]4C3)cc2C(F)F)c1 (single isomer, unassigned) [compound 46]	3%	1.98 nM	
Fc1cc(F)c(F)c(-c2nnc(N[C@H]3C[C@@H]4CN(CC5CCCCO5)C[C@@H]4C3)cc2C(F)F)c1 (single isomer, unassigned) [compound 47]		2.02 nM	2%
Fc1cc(F)c(F)c(-c2nnc(N[C@H]3C[C@@H]4CN(CC5CCCOC5)C[C@@H]4C3)cc2C(F)F)c1 (single isomer, unassigned) [compound 48]	2%	1.3 nM	
Fc1cc(F)c(F)c(-c2nnc(N[C@H]3C[C@@H]4CN(CC5CCCOC5)C[C@@H]4C3)cc2C(F)F)c1 (single isomer, unassigned) [compound 49]		1.64 nM	2%
COc1cc(-c2cccc(F)c2)nnc1N[C@H]1C[C@@H]2CN(CC3CCOCC3)C[C@@H]2C1 [compound 1, (3aR,5s,6aS)-N-(6-(3-fluorophenyl)-4-methoxypyridazin-3-yl)-2-((tetrahydro-2H-pyran-4-yl)methyl)octahydrocyclopenta[c]pyrrol-5-amine]	5%	10.8 nM	
COc1cc(-c2ccccc2F)nnc1N[C@H]1C[C@@H]2CN(CC3CCOCC3)C[C@@H]2C1 [compound 2, (3aR,5s,6aS)-N-(6-(2-fluorophenyl)-4-methoxypyridazin-3-yl)-2-((tetrahydro-2H-pyran-4-yl)methyl)octahydrocyclopenta[c]pyrrol-5-amine]	3%	10.5 nM	
COc1cc(-c2ccc(F)cc2)nnc1N[C@H]1C[C@@H]2CN(CC3CCOCC3)C[C@@H]2C1 [compound 3, (3aR,5s,6aS)-N-(6-(4-fluorophenyl)-4-methoxypyridazin-3-yl)-2-((tetrahydro-2H-pyran-4-yl)methyl)octahydrocyclopenta[c]pyrrol-5-amine]	5%	48.4 nM	
COc1cc(-c2cc(F)ccc2F)nnc1N[C@H]1C[C@@H]2CN(CC3CCOCC3)C[C@@H]2C1 [compound 4, (3aR,5s,6aS)-N-(6-(2,5-difluorophenyl)-4-methoxypyridazin-3-yl)-2-((tetrahydro-2H-pyran-4-yl)methyl)octahydrocyclopenta[c]pyrrol-5-amine]	3%	12 nM	
COc1cc(-c2ccc3nn(C)cc3c2)nnc1N[C@H]1C[C@@H]2CN(CC3CCOCC3)C[C@@H]2C1 [compound 5, (3aR,5s,6aS)-N-(4-methoxy-6-(2-methyl-2H-indazol-5-yl)pyridazin-3-yl)-2-((tetrahydro-2H-pyran-4-yl)methyl)octahydrocyclopenta[c]pyrrol-5-amine]	3%	3.89 nM	
COc1cc(-c2cc3cn(C)nc3cc2F)nnc1N[C@H]1C[C@@H]2CN(CC3CCOCC3)C[C@@H]2C1 [compound 6, (3aR,5s,6aS)-N-(6-(6-fluoro-2-methyl-2H-indazol-5-yl)-4-methoxypyridazin-3-yl)-2-((tetrahydro-2H-pyran-4-yl)methyl)octahydrocyclopenta[c]pyrrol-5-amine]	4%	44 nM	
COc1cc(-c2cc(F)ccc2C)nnc1N[C@H]1C[C@@H]2CN(CC3CCOCC3)C[C@@H]2C1 [compound 7, (3aR,5s,6aS)-N-(6-(5-fluoro-2-methylphenyl)-4-methoxypyridazin-3-yl)-2-((tetrahydro-2H-pyran-4-yl)methyl)octahydrocyclopenta[c]pyrrol-5-amine]	9%	6.84 nM	
COc1cc(-c2ccc3nn(C)cc3c2C)nnc1N[C@H]1C[C@@H]2CN(CC3CCOCC3)C[C@@H]2C1 [compound 8, (3aR,5s,6aS)-N-(6-(2,4-dimethyl-2H-indazol-5-yl)-4-methoxypyridazin-3-yl)-2-((tetrahydro-2H-pyran-4-yl)methyl)octahydrocyclopenta[c]pyrrol-5-amine]	4%	2.04 nM	
Cc1ccc(F)cc1-c1cc(S(C)(=O)=O)c(N[C@H]2C[C@@H]3CN(CC4CCOCC4)C[C@@H]3C2)nn1 [compound 9, (3aR,5s,6aS)-N-(6-(5-fluoro-2-methylphenyl)-4-(methylsulfonyl)pyridazin-3-yl)-2-((tetrahydro-2H-pyran-4-yl)methyl)octahydrocyclopenta[c]pyrrol-5-amine]	3%	18.4 nM	
Cc1ccc(F)cc1-c1cc(-c2cc(F)ccc2C)c(N[C@H]2C[C@@H]3CN(CC4CCOCC4)C[C@@H]3C2)nn1 [compound 10, (3aR,5s,6aS)-N-(4,6-bis(5-fluoro-2-methylphenyl)pyridazin-3-yl)-2-((tetrahydro-2H-pyran-4-yl)methyl)octahydrocyclopenta[c]pyrrol-5-amine]	3%	384 nM	
[2H]C([2H])(C1CCOCC1)N1C[C@H]2C[C@H](Nc3nnc(-c4cc(F)ccc4F)cc3C)C[C@H]2C1 [compound 11, (3aR,5s,6aS)-N-(6-(2,5-difluorophenyl)-4-methylpyridazin-3-yl)-2-((tetrahydro-2H-pyran-4-yl)methyl-d2)octahydrocyclopenta[c]pyrrol-5-amine]	3%	1 nM	
Cc1ccc(F)cc1-c1nnc(N[C@H]2C[C@@H]3CN(CC4CCOCC4)C[C@@H]3C2)cc1C [compound 12, (3aR,5s,6aS)-N-(6-(5-fluoro-2-methylphenyl)-5-methylpyridazin-3-yl)-2-((tetrahydro-2H-pyran-4-yl)methyl)octahydrocyclopenta[c]pyrrol-5-amine]	2%	2.55 nM	
Cc1cc(N[C@H]2C[C@@H]3CN(CC4CCOCC4)C[C@@H]3C2)nnc1-c1cc(F)ccc1F [compound 13, (3aR,5s,6aS)-N-(6-(2,5-difluorophenyl)-5-methylpyridazin-3-yl)-2-((tetrahydro-2H-pyran-4-yl)methyl)octahydrocyclopenta[c]pyrrol-5-amine]	5%	0.14 nM	
Cc1cc(N[C@H]2C[C@@H]3CN(CC4CCOCC4)C[C@@H]3C2)nnc1-c1cc(F)ccc1Cl [compound 14, (3aR,5s,6aS)-N-(6-(2-chloro-5-fluorophenyl)-5-methylpyridazin-3-yl)-2-((tetrahydro-2H-pyran-4-yl)methyl)octahydrocyclopenta[c]pyrrol-5-amine]	3%	2.36 nM	
Cc1cc(N[C@H]2C[C@@H]3CN(CC4CCOCC4)C[C@@H]3C2)nnc1-c1ccc2nn(C)cc2c1 [compound 15, (3aR,5s,6aS)-N-(5-methyl-6-(2-methyl-2H-indazol-5-yl)pyridazin-3-yl)-2-((tetrahydro-2H-pyran-4-yl)methyl)octahydrocyclopenta[c]pyrrol-5-amine]	3%	1.1 nM	

— patent US20230122344A1, “ANTAGONISTS OF THE MUSCARINIC ACETYLCHOLINE RECEPTOR M4” (Vanderbilt University, priority 2019, published 2023)
